The target of assay [1] is baculovirus-expressed JAK2 kinase (Homo sapiens, UniProt O60674). Description: biochemical. The following applies: 0.2 μM ATP; read-out: JAK2 Potency. As for the experimental part:
Compounds were tested for their ability to inhibit the kinase activity of baculovirus-expressed JAK2 kinase using the time-resolved fluorescence (TRF) detection system. […] The plates were coated with 100 μL/well of 10 μg/mL Neutravidin (Pierce #31000, Rockford, Ill.) in TBS at 37° C. for 2 h, followed by 100 μL/well of 1 μg/mL 15-mer peptide substrate (biotinyl-amino-hexanoyl-[…]-amide, Infinity Biotech Research and Resource, Aston, Pa.) at 37° C. for 1 h. […] Enzyme (15 ng/mL JAK2) was added and the reaction was allowed to proceed at room temperature for 20 min. […] Inhibition data were analyzed using ActivityBase (IDBS, Guilford, UK). IC50 values were calculated by plotting percent inhibition versus log10 of the concentration of compound and fitting to the nonlinear regression sigmoidal dose-response (variable slope) equation in XLFit (IDBS, Guilford, UK).

Assay [2] deals with baculovirus-expressed ALK (Homo sapiens, UniProt Q9UM73). Description: ALK kinase inhibition, TRF/ELISA. In kind it is biochemical. The following applies: read-out: ALK Potency. The protocol:
Briefly, each 96-well plate was coated with 100 μL/well of 10 μg/mL substrate (GST-PLC-γ) in Tris-buffered saline (TBS). […] The reaction was initiated by adding enzyme (30 ng/mL ALK) and was allowed to proceed at 37° C. for 15 minutes. Detection of the phosphorylated product was performed by adding 100 μL/well of Eu-N1 labeled PT66 antibody (Perkin Elmer #AD0041). […] Data analysis was performed using ActivityBase (IDBS, Guilford, UK). IC50 values were calculated by plotting percent inhibition versus log10 of the concentration of compound and fitting to the nonlinear regression sigmoidal dose-response (variable slope) equation in XLFit (IDBS, Guilford, UK).

These results are taken from patent publication US9238656B2, “Imidazo[4,5-b]pyridine derivatives as ALK and JAK modulators for the treatment of proliferative disorders” (priority 2012, dated 2016).

Counter-ions that a name gives are not always drawn.

baculovirus-expressed JAK2 kinase, sequence (O60674 whole entry): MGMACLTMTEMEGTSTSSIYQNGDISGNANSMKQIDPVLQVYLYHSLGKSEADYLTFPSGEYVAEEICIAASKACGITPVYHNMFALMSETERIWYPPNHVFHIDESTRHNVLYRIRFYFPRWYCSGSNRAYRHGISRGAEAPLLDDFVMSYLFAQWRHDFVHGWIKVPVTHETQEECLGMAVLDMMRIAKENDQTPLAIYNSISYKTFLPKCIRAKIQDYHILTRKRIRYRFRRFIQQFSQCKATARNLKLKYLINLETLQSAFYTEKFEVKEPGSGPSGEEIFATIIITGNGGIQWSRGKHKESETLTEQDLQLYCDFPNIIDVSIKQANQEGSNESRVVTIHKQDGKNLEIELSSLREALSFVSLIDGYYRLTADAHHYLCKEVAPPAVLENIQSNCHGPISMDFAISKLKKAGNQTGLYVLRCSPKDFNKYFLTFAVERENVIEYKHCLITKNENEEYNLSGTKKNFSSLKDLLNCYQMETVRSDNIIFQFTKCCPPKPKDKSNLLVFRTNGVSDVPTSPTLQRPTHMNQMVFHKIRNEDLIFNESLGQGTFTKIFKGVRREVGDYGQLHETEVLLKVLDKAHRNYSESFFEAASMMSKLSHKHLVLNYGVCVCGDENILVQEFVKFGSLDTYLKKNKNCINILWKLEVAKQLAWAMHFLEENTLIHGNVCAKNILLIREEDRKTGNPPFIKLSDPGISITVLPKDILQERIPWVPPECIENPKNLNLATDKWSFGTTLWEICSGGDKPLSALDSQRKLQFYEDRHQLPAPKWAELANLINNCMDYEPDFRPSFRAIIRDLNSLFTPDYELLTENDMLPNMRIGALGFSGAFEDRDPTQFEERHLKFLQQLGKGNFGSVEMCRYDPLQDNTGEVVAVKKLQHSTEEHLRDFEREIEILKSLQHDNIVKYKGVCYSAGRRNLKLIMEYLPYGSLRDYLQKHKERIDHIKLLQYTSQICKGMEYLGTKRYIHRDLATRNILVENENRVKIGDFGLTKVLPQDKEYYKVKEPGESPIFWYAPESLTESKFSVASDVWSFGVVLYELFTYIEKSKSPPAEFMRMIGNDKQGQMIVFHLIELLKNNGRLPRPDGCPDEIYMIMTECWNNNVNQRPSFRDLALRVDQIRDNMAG
baculovirus-expressed ALK, sequence (Q9UM73 19-1620): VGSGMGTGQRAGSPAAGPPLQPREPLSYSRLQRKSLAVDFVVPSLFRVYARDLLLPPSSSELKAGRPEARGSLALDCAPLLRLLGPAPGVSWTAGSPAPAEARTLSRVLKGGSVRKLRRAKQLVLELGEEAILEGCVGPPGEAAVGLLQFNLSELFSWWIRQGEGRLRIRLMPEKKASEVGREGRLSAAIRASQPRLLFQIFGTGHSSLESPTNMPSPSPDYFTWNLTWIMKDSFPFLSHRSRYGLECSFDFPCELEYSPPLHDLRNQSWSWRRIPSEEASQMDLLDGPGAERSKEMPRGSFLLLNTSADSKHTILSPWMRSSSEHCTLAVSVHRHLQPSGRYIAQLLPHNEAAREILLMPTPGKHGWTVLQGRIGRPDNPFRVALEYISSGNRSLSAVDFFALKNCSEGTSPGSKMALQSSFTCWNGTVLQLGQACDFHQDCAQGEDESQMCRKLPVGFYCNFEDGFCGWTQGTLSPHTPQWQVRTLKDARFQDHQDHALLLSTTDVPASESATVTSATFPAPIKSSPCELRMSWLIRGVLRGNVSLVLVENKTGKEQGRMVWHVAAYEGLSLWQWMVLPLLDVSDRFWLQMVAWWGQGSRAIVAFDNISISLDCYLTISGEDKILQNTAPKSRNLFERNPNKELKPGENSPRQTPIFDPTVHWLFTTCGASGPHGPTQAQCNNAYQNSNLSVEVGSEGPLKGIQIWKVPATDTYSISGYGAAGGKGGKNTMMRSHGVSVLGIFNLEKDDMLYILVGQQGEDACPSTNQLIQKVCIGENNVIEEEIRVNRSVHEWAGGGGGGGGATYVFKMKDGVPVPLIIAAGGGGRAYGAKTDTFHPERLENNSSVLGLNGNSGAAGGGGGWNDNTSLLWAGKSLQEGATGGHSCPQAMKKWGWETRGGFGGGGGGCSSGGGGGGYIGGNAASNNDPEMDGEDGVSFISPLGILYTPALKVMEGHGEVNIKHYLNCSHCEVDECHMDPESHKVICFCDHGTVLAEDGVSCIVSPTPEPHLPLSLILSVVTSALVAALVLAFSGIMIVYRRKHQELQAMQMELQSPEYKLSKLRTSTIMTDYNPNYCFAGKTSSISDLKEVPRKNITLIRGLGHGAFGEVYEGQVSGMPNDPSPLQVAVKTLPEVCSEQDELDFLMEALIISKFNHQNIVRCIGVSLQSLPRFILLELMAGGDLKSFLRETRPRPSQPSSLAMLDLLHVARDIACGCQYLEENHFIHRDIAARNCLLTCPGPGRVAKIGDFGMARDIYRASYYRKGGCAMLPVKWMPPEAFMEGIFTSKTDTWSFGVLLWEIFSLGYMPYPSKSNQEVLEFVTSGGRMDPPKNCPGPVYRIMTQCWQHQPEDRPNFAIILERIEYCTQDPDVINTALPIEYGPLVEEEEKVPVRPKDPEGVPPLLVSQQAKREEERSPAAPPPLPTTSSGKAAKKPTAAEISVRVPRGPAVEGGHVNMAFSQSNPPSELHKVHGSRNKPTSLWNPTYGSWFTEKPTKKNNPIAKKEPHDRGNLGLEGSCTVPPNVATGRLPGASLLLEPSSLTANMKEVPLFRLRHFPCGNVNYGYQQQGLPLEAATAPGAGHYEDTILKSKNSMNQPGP

Take `COc1cc(N2CCOCC2)ccc1-c1nc2c(N3C[C@@H]4C[C@H]3CN4C(=O)OC(C)(C)C)c(Cl)cnc2[nH]1` [Compound XXXVI, (1S,4S)-5-[6-Chloro-2-(2-methoxy-4-morpholinj-4-yl-phenyl)-3H-imidazol-[4,5-b]pyridine-7-yl]-2,5-diaza-bicyclo[2.2.1]heptane-2-carboxylic acid tert-butyl ester]: the IC50 was 1000 to 10000 nM in assay [1] and above 10000 nM in assay [2].
For `NC(=O)[C@@H]1[C@H](Nc2c(Cl)cnc3[nH]c(-c4cccc(C(=O)O)c4)nc23)[C@H]2C=C[C@@H]1C2` [Compound CCXVII, 3-(7-((1R,2R,3S,4S)-3-carbamoylbicyclo[2.2.1]hept-5-en-2-ylamino)-6-chloro-3H-imidazo[4,5-b]pyridin-2-yl)benzoic acid], the figures for the IC50 in assay [1] and in assay [2] were below 100 nM and 1000 to 10000 nM, respectively.
For the compound `Cc1ncc(-c2nc3c(N[C@H]4[C@@H](C(N)=O)[C@@H]5C=C[C@H]4C5)c(Cl)cnc3[nH]2)s1` [Compound CCVIII, (1S,2S,3R,4R)-3-(6-chloro-2-(2-methylthiazol-5-yl)-3H-imidazo[4,5-b]pyridin-7-ylamino)bicyclo[2.2.1]hept-5-ene-2-carboxamide], the IC50 is below 100 nM in assay [1] and 100 to 1000 nM in assay [2].
For `CN1CCC(Oc2ccc(-c3nc4c(N[C@H]5[C@@H](C(N)=O)[C@@H]6C=C[C@H]5C6)c(Cl)cnc4[nH]3)cc2)CC1` [Compound CCXLV, (1S,2S,3R,4R)-3-(6-chloro-2-(4-(1-methylpiperidin-4-yloxy)phenyl)-3H-imidazo[4,5-b]pyridin-7-ylamino)bicyclo[2.2.1]hept-5-ene-2-carboxamide], the IC50 in assay [1] and in assay [2] was below 100 nM each time.
In the case of `CN(C)C(=O)[C@@H]1[C@H](Nc2c(Cl)cnc3[nH]c(-c4sc(N5CC[C@@H](O)C5)nc4Cl)nc23)[C@H]2C=C[C@@H]1C2` [Compound CLXVIII, (1S,2S,3R,4R)-3-{6-Chloro-2-[4-chloro-2-((R)-3-hydroxy-pyrrolidin-1-yl)-thiazol-5-yl]-3H-imidazo[4,5-b]pyridin-7-ylamino}-bicyclo[2.2.1]hept-5-ene-2-carboxylic acid dimethylamide], the IC50 in assay [1] and in assay [2] was below 100 nM throughout.
Consider `NC(=O)[C@@H]1[C@H](Nc2c(Br)cnc3[nH]c(-c4sc(N5CCCC5)nc4Cl)nc23)[C@H]2C=C[C@@H]1C2` [Compound CLXVII, (1S,2S,3R,4R)-3-[6-Bromo-2-(4-chloro-2-pyrrolidin-1-yl-thiazol-5-yl)-3H-imidazo[4,5-b]pyridin-7-ylamino]-bicyclo[2.2.1]hept-5-ene-2-carboxylic acid amide], for which the IC50 in assay [1] and in assay [2] was below 100 nM each time.
Regarding `COc1ccc(-c2nc3c(N[C@H]4[C@@H](C(N)=O)[C@@H]5C=C[C@H]4C5)c(Cl)cnc3[nH]2)c(C2CCN(C[C@H](O)CO)CC2)c1` [Compound XXXIII], the IC50 in assay [1] and in assay [2] was 100 to 1000 nM each time.
Consider `COc1cc(N2CCOCC2)ccc1-c1nc2c(NC34CCC(C)(C(=O)C3)C4(C)C)c(Cl)cnc2[nH]1` (stereo not drawn) [Compound CC, 4-(6-chloro-2-(2-methoxy-4-morpholinophenyl)-3H-imidazo[4,5-b]pyridin-7-ylamino)-1,7,7-trimethylbicyclo[2.2.1]heptan-2-one], for which the IC50 in assay [1] and in assay [2] was 100 to 1000 nM in each case.
As to `COc1cc(N2CCC(N3CCN(C)CC3)CC2)ccc1-c1nc2c(N[C@@H]3CCCC[C@H]3NS(C)(=O)=O)c(Cl)cnc2[nH]1` [CCLIII], the IC50 in assay [1] was 1000 to 10000 nM; in assay [2], below 100 nM.
As to `CN1CCN(c2nc(Cl)c(-c3nc4c(N[C@H]5[C@@H](C(=O)N(C)C)[C@@H]6C=C[C@H]5C6)c(Cl)cnc4[nH]3)s2)CC1` [Compound CCLXIV, (1S,2S,3R,4R)-3-((6-chloro-2-(4-chloro-2-(4-methylpiperazin-1-yl)thiazol-5-yl)-3H-imidazo[4,5-b]pyridin-7-yl)amino)-N,N-dimethylbicyclo[2.2.1]hept-5-ene-2-carboxamide], the IC50 in assay [1] and in assay [2] was below 100 nM each time.
Turning to `NC(=O)[C@@H]1[C@H](Nc2c(Cl)cnc3[nH]c(-c4cncs4)nc23)[C@H]2C=C[C@@H]1C2` [Compound CCVII, (1S,2S,3R,4R)-3-(6-chloro-2-(thiazol-5-yl)-3H-imidazo[4,5-b]pyridin-7-ylamino)bicyclo[2.2.1]hept-5-ene-2-carboxamide], the figures for the IC50 in assay [1] and in assay [2] were below 100 nM and 100 to 1000 nM, respectively.
For the compound `NC(=O)COc1cccc(-c2nc3c(N[C@H]4[C@@H](C(N)=O)[C@@H]5C=C[C@H]4C5)c(Cl)cnc3[nH]2)c1` [Compound CCXXXVIII, (1S,2S,3R,4R)-3-(2-(3-(2-amino-2-oxoethoxy)phenyl)-6-chloro-3H-imidazo[4,5-b]pyridin-7-ylamino)bicyclo[2.2.1]hept-5-ene-2-carboxamide], the IC50 in assay [1] was below 100 nM; in assay [2], 100 to 1000 nM.
As for `NC(=O)[C@@H]1[C@H](Nc2c(Br)cnc3[nH]c(-c4cccc(Cl)c4)nc23)[C@H]2C=C[C@@H]1C2` [Compound CXLII, (1S,2S,3R,4R)-3-[6-Bromo-2-(3-chloro-phenyl)-3H-imidazo[4,5-b]pyridin-7-ylamino]-bicyclo[2.2.1]hept-5-ene-2-carboxylic acid amide], the figures for the IC50 in assay [1] and in assay [2] were below 100 nM and 100 to 1000 nM, respectively.
Turning to `NC(=O)[C@@H]1[C@H](Nc2c(Cl)cnc3[nH]c(-c4cccc(CN5CCOCC5)c4)nc23)[C@H]2C=C[C@@H]1C2` [Compound XVI, (1S,2S,3R,4R)-3-[6-Chloro-2-(3-morpholin-4-ylmethyl-phenyl)-3H-imidazo[4,5-b]pyridin-7-ylamino]-bicyclo[2.2.1]hept-5-ene-2-carboxylic acid amide trifluoroacetic acid salt], the IC50 in assay [1] and in assay [2] was below 100 nM throughout.
As to `NC(=O)[C@@H]1[C@H](Nc2c(Cl)cnc3[nH]c(-c4ccc(O)cc4)nc23)[C@H]2C=C[C@@H]1C2` [Compound CCXXXIV, (1S,2S,3R,4R)-3-(6-chloro-2-(4-hydroxyphenyl)-3H-imidazo[4,5-b]pyridin-7-ylamino)bicyclo[2.2.1]hept-5-ene-2-carboxamide], the IC50 in assay [1] is below 100 nM; in assay [2] it was 100 to 1000 nM.
Taken in the same sequence, the figures for `CN1CCN(CCOc2ccc(-c3nc4c(N[C@H]5[C@@H](C(=O)N(C)C)[C@@H]6C=C[C@H]5C6)c(Cl)cnc4[nH]3)cc2)CC1` [Compound CLXXV, (1S,2S,3R,4R)-3-(6-Chloro-2-{4-[2-(4-methyl-piperazin-1-yl)-ethoxy]-phenyl}-3H-imidazo[4,5-b]pyridin-7-ylamino)-bicyclo[2.2.1]hept-5-ene-2-carboxylic acid dimethylamide] were below 100 nM and below 100 nM.
For `COc1cc(CN2CCN(C)CC2)ccc1-c1nc2c(N[C@@H]3CCCC[C@H]3NS(C)(=O)=O)c(Cl)cnc2[nH]1` [Compound LXXI, N-((1R,2R)-2-{6-Chloro-2-[2-methoxy-4-(4-methyl-piperazin-1-ylmethyl)-phenyl]-3H-imidazo[4,5-b]pyridine-7-ylamino}-cyclohexyl)-methanesulfonamide] the same measures were 1000 to 10000 nM and below 100 nM.
Turning to `NC(=O)[C@@H]1[C@H](Nc2c(Br)cnc3[nH]c(-c4ccc(CN5CCOCC5)cc4)nc23)[C@H]2C=C[C@@H]1C2` [Compound LXXX, (1S,2S,3R,4R)-3-[6-Bromo-2-(4-morpholin-4-ylmethyl-phenyl)-3H-imidazo[4,5-b]pyridin-7-ylamino]-bicyclo[2.2.1]hept-5-ene-2-carboxylic acid amide], the IC50 in assay [1] and in assay [2] was below 100 nM throughout.
On to `CN(C)c1cccc(-c2nc3c(N[C@@H]4[C@H](C(N)=O)[C@H]5C=C[C@@H]4C5)c(Cl)cnc3[nH]2)c1` [Compound XXIV, (1R,2R,3S,4S)-3-[6-Chloro-2-(3-dimethylamino-phenyl)-3H-imidazo[4,5-b]pyridine-7-ylamino]-bicyclo[2.2.1]hept-5-ene-2-carboxylic acid amide], for which the IC50 in assay [1] was 100 to 1000 nM; in assay [2], above 10000 nM.
For the compound `NC(=O)[C@@H]1[C@H](Nc2c(Br)cnc3[nH]c(-c4cccc(F)c4)nc23)[C@H]2C=C[C@@H]1C2` [Compound CXXXII, (1S,2S,3R,4R)-3-[6-Bromo-2-(3-fluoro-phenyl)-3H-imidazo[4,5-b]pyridin-7-ylamino]-bicyclo[2.2.1]hept-5-ene-2-carboxylic acid amide], the IC50 is below 100 nM in assay [1] and 100 to 1000 nM in assay [2].
As for `NC(=O)[C@@H]1[C@H](Nc2c(Br)cnc3[nH]c(-c4ccc5c(c4)CCC4(CCNCC4)O5)nc23)[C@H]2C=C[C@@H]1C2` [Compound CXIV, (1S,2S,3R,4R)-3-[(6-bromo-2-spiro[chromane-2,4′-piperidine]-6-yl-3H-imidazo[4,5-b]pyridin-7-yl)amino]bicyclo[2.2.1]hept-5-ene-2-carboxamide], the IC50 in assay [1] and in assay [2] was below 100 nM each time.
